Laboratory results taken from PMC8994671 (ACS infectious diseases, 2017).
Values after ≈ are worked out from the molar mass of the structure shown. Like-named read-outs stand apart in the source and are kept apart here.

Tests used:
C. neoformans = assay: In vitro antifungal susceptibility testing; assay type: cell-based, Cryptococcus neoformans; conditions: for MIC: Cryptococcus neoformans, read-out: C. neoformans MIC; for C. neoformans MIC: Table 1, highest value of at least three biological replicates
[1] = tested on: calmodulin-dependent localization of Crz1; conditions: assay validation; cited from earlier work
C. albicans [2] = conditions: cited from earlier work
[3] = tested on: calmodulin-dependent localization of Crz1; assay: Crz1 nuclear translocation assay; assay type: cell-based, Cryptococcus neoformans; conditions: shift to 37°C
C. albicans [4] = assay: In vitro antifungal susceptibility testing; assay type: cell-based; conditions: Candida albicans, SC5314, read-out: C. albicans MIC

Structure (SMILES) | MIC (C. neoformans) [µg/mL] | C. neoformans MIC (C. neoformans) [µg/mL] | other results
CCN(CC)CCCCN1c2ccccc2Oc2ccc(Cl)cc21 [Compound 12] | – | 8 | –
C=CC[C@@H]1/C=C(\C)C[C@H](C)C[C@H](OC)[C@H]2O[C@@](O)(C(=O)C(=O)N3CCCC[C@H]3C(=O)O[C@H](/C(C)=C/[C@@H]3CC[C@@H](O)[C@H](OC)C3)[C@H](C)[C@@H](O)CC1=O)[C@H](C)C[C@@H]2OC [FK506] | – | – | Effect on nuclear localization of Crz1 [1]: reduce nuclear localization of Crz1
OC(Cn1cncn1)(Cn1cncn1)c1ccc(F)cc1F [FLU, Fluconazole] | – | – | C. albicans MIC (C. albicans [2]; strain SC5314): 0.25 µg/mL; C. albicans MIC (C. albicans [2]; strain TWO7229): 0.25 µg/mL; C. albicans MIC (C. albicans [2]; strain TWO7230): 2 µg/mL; C. albicans MIC (C. albicans [2]; strain TWO7241): 16 µg/mL; C. albicans MIC (C. albicans [2]; strain TWO7243): 128 µg/mL
OCCN1CCN(CCCN2c3ccccc3Sc3ccc(C(F)(F)F)cc32)CC1 [Fluphenazine (10), Fluphenazine] | 8 (≈ 18.3 µM) | 8 | –
CSc1ccc2c(c1)N(CCC1CCCCN1C)c1ccccc1S2 (stereo not shown) [Thioridazine, THZ (1), Thioridazine] | 16 (≈ 43.2 µM) | 16 | –
CN1CCN(CCCN2c3ccccc3Sc3ccc(C(F)(F)F)cc32)CC1 [Trifluoperazine, TFP (8), Trifluoperazine] | 16 (≈ 39.3 µM) | 16 | Effect on Crz1 localization ([3]; higher concentrations than 2 μg/mL, Fig. 1B): reduce localization significantly; Effect on Crz1 localization ([3]; sub-inhibitory concentration 2 μg/mL): fail to affect Crz1 localization; MIC (C. albicans [4]): > 32 µg/mL; Effect on nuclear localization of Crz1 [1]: reduce nuclear localization of Crz1
CN(C)CCCN1c2ccccc2Sc2ccc(C(F)(F)F)cc21 [Triflupromazine (4), Triflupromazine] | 32 (≈ 90.8 µM) | – | –
CC/C(=C(\c1ccccc1)c1ccc(OCCN(C)C)cc1)c1ccccc1 [tamoxifen] | – | – | Effect on nuclear localization of Crz1 [1]: reduce nuclear localization of Crz1

The next lines start with results.

MIC (C. neoformans) [µg/mL] | Structure (SMILES) | C. neoformans MIC (C. neoformans) [µg/mL] | other results
25 (≈ 78.4 µM) | CN(C)CCCN1c2ccccc2Sc2ccc(Cl)cc21 [Chlorpromazine (3), Chlorpromazine] | – | –
64 (≈ 171 µM) | CN1CCN(CCCN2c3ccccc3Sc3ccc(Cl)cc32)CC1 [Prochlorperazine (7), Prochlorperazine] | – | –
64 (≈ 225 µM) | CN(C)CCCN1c2ccccc2Sc2ccccc21 [Promazine (2), Promazine] | – | –
